Data on 18 molecules can be found in ChEMBL document CHEMBL4339210, “Synthesis and evaluation of histamine H3 receptor ligand based on lactam scaffold as agents for treating neuropathic pain” (Bioorg Med Chem Lett, 2019).

By Ki is commonly meant the dissociation constant of the complex between target and ligand, obtained from inhibition or displacement. Read a high Ki as a looser hold on the target. As usually defined, the ED50 is the dose that gives a 50% effect, or the effect in half of the subjects. For orientation: LD50 means the dose at which mortality reaches 50%.

Calls of active or inactive are those of the source. The calls are words filed in the database; no cut-off is given here. Where only a bound is given, the exact number is not on record here.

One data set concerns the target Histamine H1 receptor (Cavia porcellus, UniProt P31389). Description: Displacement of [3H]-mepyramine from histamine H1 receptor in guinea pig cerebellum homogenates incubated for 60 mins by Cheng and Prusoff equation analysis by scintillation counting analysis. Type of data set: tissue-based. Background: Displacement assays read how much labelled ligand stays bound in the presence of the test substance.

Another data set deals with Histamine H3 receptor (Rattus norvegicus, UniProt Q9QYN8). Description: Displacement of [3H]-N-alpha-methylhistamine from histamine H3 receptor in rat cerebral cortex homogenates incubated for 60 mins by Cheng and Prusoff equation analysis by scintillation counting analysis.
The subject of data set [1] is Rattus norvegicus. Briefly: Anti-nociceptive activity in Sprague-Dawley rat assessed as reduction in total time spent licking injected paw during delayed phase (15 to 45 mins) at 1 to 10 mg/kg, po dosed 1 hr before formalin injection. Format: functional.
The test system of data set [2] is Rattus norvegicus. Briefly: Anti-nociceptive activity in Sprague-Dawley rat assessed as reduction in total time spent licking injected paw during early phase (0 to 5 mins) at 1 to 10 mg/kg, po dosed 1 hr before formalin injection. Format: functional.
Data set [3] can be described thus: Acute toxicity in KM mouse assessed as effect on survival at 50 to 1000 mg/kg, po after 24 hrs. Particulars: in vivo. Type of data set: organism-based.
The test system of data set [4] is Rattus norvegicus. Description: Anti-nociceptive activity in Sprague-Dawley rat assessed as reduction in total time spent licking injected paw during delayed phase (15 to 45 mins) at 40 mg/kg, po dosed 1 hr before formalin injection. Format: functional, organism-based.
The test system of data set [5] is Rattus norvegicus. Description: Anti-nociceptive activity in Sprague-Dawley rat assessed as reduction in total time spent licking injected paw during early phase (0 to 5 mins) at 40 mg/kg, po dosed 1 hr before formalin injection. Format: functional, organism-based.
The subject of data set [6] is Rattus norvegicus. Description: Anti-nociceptive activity in Sprague-Dawley rat assessed as reduction in total time spent licking injected paw during early phase (0 to 5 mins) at 1 mg/kg, po dosed 1 hr before formalin injection. Format: functional, organism-based.
Data set [7] deals with Rattus norvegicus. Briefly: Anti-nociceptive activity in Sprague-Dawley rat assessed as reduction in total time spent licking injected paw during delayed phase (15 to 45 mins) at 1 mg/kg, po dosed 1 hr before formalin injection. Format: functional, organism-based.

Sequence of Histamine H3 receptor (Q9QYN8 whole entry): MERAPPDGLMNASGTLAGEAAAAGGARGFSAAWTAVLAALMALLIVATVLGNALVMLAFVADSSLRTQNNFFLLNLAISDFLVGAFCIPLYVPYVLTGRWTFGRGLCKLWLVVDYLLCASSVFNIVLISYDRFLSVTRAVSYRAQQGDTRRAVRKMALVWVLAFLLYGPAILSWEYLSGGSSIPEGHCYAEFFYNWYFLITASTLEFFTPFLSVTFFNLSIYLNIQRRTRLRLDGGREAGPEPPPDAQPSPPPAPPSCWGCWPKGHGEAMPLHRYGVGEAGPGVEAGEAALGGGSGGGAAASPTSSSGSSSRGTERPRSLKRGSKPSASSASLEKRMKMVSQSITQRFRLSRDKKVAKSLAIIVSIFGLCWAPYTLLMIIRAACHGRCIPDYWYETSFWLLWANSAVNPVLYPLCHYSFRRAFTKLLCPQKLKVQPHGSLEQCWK
Sequence of Histamine H1 receptor (P31389 whole entry): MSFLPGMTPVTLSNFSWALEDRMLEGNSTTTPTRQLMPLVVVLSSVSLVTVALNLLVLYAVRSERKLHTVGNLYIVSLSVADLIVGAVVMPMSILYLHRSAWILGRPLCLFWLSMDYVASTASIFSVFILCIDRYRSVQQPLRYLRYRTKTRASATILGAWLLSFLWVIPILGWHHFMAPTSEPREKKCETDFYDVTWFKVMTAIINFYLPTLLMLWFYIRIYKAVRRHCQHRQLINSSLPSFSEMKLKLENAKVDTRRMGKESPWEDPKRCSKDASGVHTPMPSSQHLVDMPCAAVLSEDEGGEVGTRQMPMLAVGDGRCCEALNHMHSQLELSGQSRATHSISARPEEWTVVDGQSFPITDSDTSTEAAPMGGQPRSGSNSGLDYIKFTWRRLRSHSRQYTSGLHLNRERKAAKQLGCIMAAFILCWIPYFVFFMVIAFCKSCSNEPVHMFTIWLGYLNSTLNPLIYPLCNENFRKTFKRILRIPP

On to `CCN1CCN(CCCOc2ccc3c(c2)C(=O)N(C)CC3)CC1`, for which the Ki at Histamine H1 receptor is 1100 nM. As to `CN1CCc2ccc(OCCCN3CCCC3)cc2C1=O`, the Ki is 39 nM at Histamine H1 receptor and 169 nM on Histamine H3 receptor. Consider `CN1CCc2ccc(OCCCN3CCC(O)CC3)cc2C1=O`, for which the Ki at Histamine H1 receptor worked out at 35 nM; on Histamine H3 receptor, 908 nM. With `CN1CCc2ccc(OCCCN3CCC(=O)CC3)cc2C1=O`, the inhibition constant (Ki) at Histamine H1 receptor was 176 nM. For the molecule `CN1CCc2ccc(OCC(O)CN3CCOCC3)cc2C1=O` (stereo not drawn), the Ki on Histamine H1 receptor is more than 2000 nM.

On to `CC1CCCN1CCCOc1ccc2c(c1)C(=O)N(C)CC2` (stereo not drawn), for which the figures for the Ki at Histamine H1 receptor and at Histamine H3 receptor were 26 nM and 68 nM, respectively. As for `CN1CCc2ccc(OCCCN3CCOCC3)cc2C1=O`, the results for the Ki at Histamine H1 receptor and at Histamine H3 receptor were 6.5 nM and 1030 nM, respectively. The Activity result with Rattus norvegicus [1] and with Rattus norvegicus [2] was “Dose-dependent effect” each time. Moreover, the figures for the ED50 with Rattus norvegicus [1] and in the data set with Rattus norvegicus [2] were 2.4 mg/kg and 1.3 mg/kg, respectively. Besides, the 50% lethal dose (LD50) at 24 h in [3] was more than 1000 mg/kg. For `CC(C)C[C@H](CN)CC(=O)O`, the result in the data set with Rattus norvegicus [4] and in the data set with Rattus norvegicus [5] was Active.

`CC1CCN(CCCOc2ccc3c(c2)C(=O)N(C)CC3)CC1`: the Ki was found to be 32 nM on Histamine H1 receptor and 279 nM at Histamine H3 receptor. `CN1CCc2ccc(OCCCCN3CCOCC3)cc2C1=O` gave a Ki at Histamine H1 receptor of 856 nM. The molecule `CC1CCCCN1CCCOc1ccc2c(c1)C(=O)N(C)CC2` (stereo not drawn) gave a Ki on Histamine H1 receptor of 165 nM. On to `NC(=O)c1ccc(OCCCN2C[C@H]3CCC[C@H]3C2)cc1`, for which the Ki at Histamine H1 receptor is 3.6 nM; on Histamine H3 receptor, 426 nM. The outcome in the data set with Rattus norvegicus [6] and with Rattus norvegicus [7] was Active.

Regarding `CN1CCc2ccc(OCCCN3CCCCC3)cc2C1=O`, the Ki was determined as 23 nM at Histamine H1 receptor and 189 nM on Histamine H3 receptor. For `CN1CCc2ccc(OCCCN3CCC(O)C3)cc2C1=O` (stereo not drawn), at Histamine H1 receptor, affinity was put at a Ki of 112 nM.

The molecule `CCN1CCc2ccc(OCCCN3CCOCC3)cc2C1=O` came in with a Ki at Histamine H1 receptor of 252 nM. As to `CN1CCN(CCCOc2ccc3c(c2)C(=O)N(C)CC3)CC1`, the Ki at Histamine H1 receptor came out at 706 nM. Take `CN1CCc2ccc(OCCN3CCOCC3)cc2C1=O`: the Ki at Histamine H1 receptor came to 1210 nM. Regarding `CCN(CC)CCCOc1ccc2c(c1)C(=O)N(C)CC2`, at Histamine H1 receptor, affinity was put at a Ki of 542 nM.
